Literature values as cited in patent US5883103A, “Oral acyclovir delivery” (priority 1995, dated 1999).

Tests used:
[1] = tested on: viral DNA polymerase
[2] = tested on: cellular α-DNA polymerase; settings: compared with viral DNA polymerase
[3] = tested on: herpes simplex types 2 (HSV-2)
[4] = tested on: uninfected normal cells
[5] = tested on: cytomegalovirus (CMV)
[6] = tested on: TK encoded by HSV, varicella zoster, and EBV
[7] = oral
[8] = tested on: herpes simplex types I (HSV-1)
[9] = tested on: thymidine kinase (TK) expressed by uninfected normal cells
[10] = tested on: varicella zoster
[11] = tested on: herpes simplex virus (HSV), cytomegalovirus (CMV) and varicella-zoster
[12] = tested on: Epstein-Barr virus (EBV)
[13] = tested on: varicella-zoster; settings: in vivo

| SMILES | effect on viral DNA polymerase [1] | effect on cellular α-DNA polymerase [2] | inhibition of HSV-2 [3] | toxicity in vitro for uninfected normal cells [4] | inhibition of CMV [5] | conversion by viral TK [6] | absorption [7] | bioavailability [7] | inhibition of HSV-1 [8] | substrate for TK of uninfected normal cells [9] | inhibition of varicella zoster [10] | safety and efficacy in treatment of viral disease ([11]; immunocompromised and immunocompetent patients) | suppression of reactivated or newly acquired viral diseases ([11]; oral administration, genital herpes simplex, shingles, acute varicella-zoster) | morbidity and mortality from viral disease ([11]; pre- and postoperative prophylaxis, long-term (>6 months) oral) | inhibition of EBV [12] | effect on symptoms of acute varicella-zoster disease [13] |
| --- | --- | --- | --- | --- | --- | --- | --- | --- | --- | --- | --- | --- | --- | --- | --- | --- |
| Nc1nc2c(ncn2COCCOP(=O)(O)OP(=O)(O)OP(=O)(O)O)c(=O)[nH]1 [Acyclovir triphosphate] | interferes with viral DNA polymerase | to a lesser degree | – | – | – | – | – | – | – | – | – | – | – | – | – | – |
| Nc1nc2c(ncn2COCCO)c(=O)[nH]1 [acyclovir, 2-amino-1,9-dihydro-9-[(2-hydroxy-ethoxy)methyl]-6H-purin-6-one] | – | – | inhibits | much less toxic in vitro for uninfected normal cells | inhibits | converts acyclovir into acyclovir monophosphate | slowly and erratically absorbed | 15-30% | inhibits | not a substrate | inhibits | safe and effective | suppression of reactivated or newly acquired viral diseases | reduced | inhibits | reduces fever, chronic pain, the progression of rash and accelerates cutaneous healing |
